Consider one molecule from patent US11344527B2, “Methods and compositions for treating cancer” (Sutter West Bay Hospitals, priority 2007, dated 2022).

In experiment [1] the test system is MDA-MB231 cells. Put plainly: MTT cell proliferation assay, MDA-MB231. The note with it: Homo sapiens, MDA-MB-231, 72 h, read-out: IC50 antiproliferative, MDA-MB231.
The subject of the next experiment is caspase 3, 7, 9 and PARP. The experiment can be described thus: Caspase and PARP Western analysis, U251. It counts as cell-based, human. The note with it: U251, three days; Δ9-THC 1.7 μM and/or CBD 0.4 μM; FIG. 9.
Another experiment relates to Id-1. The experiment can be described thus: Id-1 protein expression by quantitative Western analysis, MDA-MB231. It counts as cell-based, human. To be noted: MDA-MB231 cells, 1.5 μM, two days, FIG. 1E. From the text:
Proteins were separated by SDS/PAGE, blotted on Immobilon membrane, and probed with anti-Id-1 and the appropriate secondary antibody. Band intensity values were obtained directly from the blot using AlphaeaseFC software (San Leandro, Calif.) or from film using Image-J (NIH, MD). As a normalization control for loading, blots were stripped and re-probed with mouse alpha-tubulin (Abeam, Cambridge, Mass.).
The ability of CBD to regulate the expression of key genes that control breast cancer cell aggressiveness and invasiveness was determined A potential candidate protein that could mediate the effects of CBD on both phenotypes was the helix-loop-helix protein Id-1. […] The inhibitory effect of CBD on Id-1 expression occurred at concentrations as low as 100 nM. […] The CBD concentrations effective at inhibiting Id-1 expression correlated with those used to inhibit the proliferative and invasive phenotype of MDA-MB231 cells. Furthermore, the time period needed to observe the down-regulation of Id-1 protein in the presence of CBD correlated with the inhibitory effects of CBD on the aggressiveness and invasiveness of MDA-MB231 cells (FIG. 1, panel D).
In order to determine the SAR between cannabinoids and the inhibition of Id-1, MDA-MB231 cells were treated for two days with multiple cannabinoid compounds and Id-1 protein levels were assessed.

Experiment [2] has as its system U251 cells. Put plainly: Apoptosis (annexin staining, FACS), U251. Format: cell-based, human. To be noted: U251, three days. As for the experimental part: Cells were grown in 6 well culture dishes and were treated with the appropriate compounds every 24 hours for three days. The cells were trypsinized, washed with PBS, and processed for labeling with fluorescein-tagged UTP nucleotide and PI by use of an Apo-Direct apoptosis kit obtained from Phoenix Flow Systems (San Diego, Calif.) and was used according to the manufacturer's protocol. The labeled cells were analyzed by flow cytometry. Cell Flow Cytometry in combination with PI and annexin staining was used to quantify the percentage of cells undergoing apoptosis in control and treatment groups. % control was calculated as annexin positive staining in treated cells/control cells×100. PI staining was used to distinguish necrotic cells from those undergoing apoptosis.

The next experiment concerns SF126 cells. Put plainly: MTT cell proliferation assay, SF126 GBM cells. It counts as cell-based, human. To be noted: Homo sapiens, read-out: IC50 antiproliferative, SF126. As for the experimental part: (§1) The human GBM cell lines used were SF126, U87 and U251. Cell lines were maintained at 37° C. and 5% CO2.
(§2) Treatment groups were divided into 1) no treatment (control), 2) Δ^9-THC alone, 3) CBD alone, 4) Δ^9-THC and CBD combined. Positive and negative aspects of constituent interaction were determined in this 2×2 design using 2-way analysis of variance as described by (Slinker, 1998). […] Significant differences were also determined using ANOVA where suitable. […] P values <0.05 defined statistical significance.
In general terms: Formazan colour is commonly taken as a measure of viable cells.

The subject of experiment [3] is MDA-MB231 cells. The experiment can be described thus: Boyden chamber invasion assay, MDA-MB231. To be noted: 0.1, 1.0 or 1.5 μM; FIG. 1A. It counts as cell-based, human. The method, then: Invasion is an important step towards breast cancer cell metastasis. Therefore, the effects of several cannabinoids were tested on their ability to modulate the migratory and invasiveness activity of the most aggressive human breast cancer cell line, MDA-MB231, in a reconstituted basement membrane in a Boyden chamber.

A further experiment has as its system MDA-MB436 cells. Put plainly: MTT cell proliferation assay, MDA-MB436. To be noted: Homo sapiens, MDA-MB-436, 72 h, read-out: IC50 antiproliferative, MDA-MB436.
In the next experiment the test system is ERK, JNK, and p38 MAPK. Put plainly: MAPK activity (pERK, ERK, JNK, p38) by Western analysis, U251. Format: cell-based, human. The method, then: Cells cultured and treated in 6-well dishes were washed twice with cold PBS. Lysis buffer was added and cells lysed by freezing for 10 min at −70° C. and then thawing. Cell lysate was collected and the concentration was determined using Bradford reagent. Equal amounts of protein were heated to 90° C. in Laemmli sample buffer with β-mercaptoethanol, and loaded onto a precast SDS-PAGE gel (Bio-Rad Laboratories, Hercules, Calif.). Protein was transferred to an Immobilon membrane (Millipore, Billerica, Mass.) overnight at 2-4° C. Blots were then blocked with 5% nonfat dry milk in TBS+Tween for 1 h. Primary antibody from Millipore (rabbit anti-phospho-JNK, rabbit anti-phospho-p38, rabbit anti-phospho-ERK1/2 and rabbit anti-ERK1/2, 1 mcg/mL) in blocking buffer was then added for 1 h. The blots were then rinsed three times 10 min with TBS+Tween. Secondary antibody (Donkey Anti-Rabbit IgG, Jackson Immunoresearch, West Grove, Pa.) was then added. Blots were incubated for 45 min and then washed 4 times for 15 min each. The blots were developed with SuperSignal Femto (Pierce, Rockford, Ill.), and imaged on either a Fluorchem 8900 (Alpha Innotech, San Leandro, Calif.) or ECL Hyperfilm (Amersham-Pharmacia, Piscataway, N.J.). Band intensity values were obtained (after background subtraction) directly from the […] using AlphaeaseFC software (San Leandro, Calif.) or from film using Image-J (NIH, MD). As a normalization control for loading, blots were stripped and re-probed with mouse alpha-tubulin (Abcam, Cambridge, Mass.) and goat anti-mouse IgG (Jackson Immunoresearch) for the primary and secondary antibodies, respectively.
The regulation of ERK, JNK, and p38 MAPK activity plays a role in controlling cell growth and apoptosis. U251 cells were used to determine whether modulation of ERK, JNK, and p38 MAPK activity occurred.

Experiment [4] relates to U251 cells. The experiment can be described thus: MTT cell proliferation assay, U251 GBM cells. The note with it: Homo sapiens, U-251, 168 h, seven day treatment, 95% confidence limits, read-out: IC50 antiproliferative, U251. It counts as cell-based, human. The method, then: as §1, §2
Experiment [5] deals with U251 cells. Put plainly: Boyden chamber invasion assay, U251. It counts as cell-based, human.
A further experiment has as its system U87 cells. Put plainly: MTT cell proliferation assay, U87 GBM cells. Format: cell-based, human. The note with it: Homo sapiens, U-87 MG, 168 h, seven day treatment, 95% confidence limits, read-out: IC50 antiproliferative, U87. As for the experimental part: as §1, §2
Experiment [6] deals with U251 cells. Put plainly: Cell cycle analysis (PI staining, FACS), U251. Format: cell-based, human. The note with it: Δ9-THC 1.7 μM and/or CBD 0.4 μM, FIG. 8. As for the experimental part: U251 cells were grown in Petri dishes (100 mm×15 mm) and received drug treatments for 2 days. On the third day, the cells were harvested and centrifuged at 1200 rpm for 5 minutes. The pellet was washed 1× with PBS+1% BSA, and centrifuged again. The pellet was resuspended in 0.5 ml of 2% paraformaldehyde (diluted with PBS) and left to fix overnight at room temperature. The next day the cells were pelleted and resuspended in 0.5 ml 0.3% Triton in PBS and incubated for 5 minutes at room temperature. The cells were then washed 2 times with PBS+1% BSA. The cells were finally suspended in PBS (0.1% BSA) with 10 ug/ml Propidium Iodide and 100 μg/ml RNAse. The cells were incubated for 30 minutes at room temperature before being stored at 4 C. Cell cycle was measured using a FACS Calibur using Cell Quest Pro and Modfit software.

Read-outs that look alike come from different tables or passages of the source.

For orientation: IC50 means the concentration at which inhibition is half-maximal.

Regarding `CCCCCc1cc(O)c2c(c1)OC(C)(C)C1CCC(C)=CC21` (stereo not drawn) [Δ^9-THC, tetrahydrocannabinol], the IC50 is 1200 nM with MDA-MB231 cells [1]; 2500 nM in the experiment with SF126 cells (SF-126, 72 h, three day treatment, 95% confidence limits (Table 4)); 900 nM in the experiment with SF126 cells (SF-126, 168 h, seven day treatment, 95% confidence limits); 2500 nM in the experiment with MDA-MB436 cells; 1100 nM in the experiment on U251 cells [4]; 85 nM in the experiment on U251 cells [5] (Homo sapiens, U-251, limits 49-150, read-out: predicted IC50 to inhibit U251 cell invasiveness). Also, the concentration for half-maximal inhibition (IC50) with U87 cells worked out at 1600 nM. In addition, the “caspase 3, 7, 9 and PARP activation” value with caspase 3, 7, 9 and PARP is “Small increases in the activity of caspase 7, caspase 9 and PARP but not caspase 3”. For the same molecule, the “inhibition of Id-1 protein (structure activity relationship)” value with Id-1 is “No inhibition”; in the experiment on Id-1 (listed as THC), “no activity”. In addition, the “apoptosis in the presence of the CB2 antagonist SR144528” value in the experiment on U251 cells [2] (0.5 μM SR144528, combination 1.7/0.4 μM, 2.5 μM Δ9-THC or 2.0 μM CBD, FIG. 6) is given as “partially blocked”. In addition, the “apoptosis in the presence of α-tocopherol” value with U251 cells [2] (20 μM α-tocopherol, combination 1.7/0.4 μM, 2.5 μM Δ9-THC or 2.0 μM CBD, FIG. 6) is recorded as “completely blocked”. The “apoptosis (annexin staining)” value in the experiment with U251 cells [2] (Δ9-THC 1.7 μM and/or CBD 0.4 μM, FIG. 5) was “did not produce significant changes”. In addition, the “invasion of MDA-MB231 cells” value in the experiment on MDA-MB231 cells [3] was “significantly reduced”. For the same molecule, the “p-ERK, higher concentrations alone compared with the combination” value with ERK, JNK, and p38 MAPK (U251, three days, 2.5 μM Δ9-THC, 2.0 μM CBD, or 1.7 μM/0.4 μM combination, FIG. 6D) is on record as “no effect”. Besides, the p-ERK result in the experiment with ERK, JNK, and p38 MAPK (U251, Δ9-THC 1.7 μM and/or CBD 0.4 μM, two days, FIG. 4) is on record as “no changes”. Moreover, the “invasiveness of U251 cells” value in the experiment with U251 cells [5] (Boyden chamber, FIG. 10) is listed as “effectively inhibited”. For the same molecule, the cell cycle distribution entry in the experiment with U251 cells [6] was “increases in the population of cells in G1 and G2/M phase and decreases in cells in S phase”.
